From US20250312497A1, “METHOD OF TREATING PROSTATE CANCER” (Novartis AG, priority 2022, published 2025)
“And” between values parts separate entries of the source, which are not always exact repeats. Equal values may be shown once.

Test system: PSMA-positive mCRPC participants
Experiment: PSMAfore phase III: adverse events, serious adverse events, safety topics and deaths (safety set)
Type: in vivo, human
Details: DCO 2 Oct 2022
[1] = most common AEs (>10% in either arm)

## O=C([O-])CN1CCN(CC(=O)[O-])CCN(CC(=O)NCC2CCC(C(=O)N[C@@H](Cc3ccc4ccccc4c3)C(=O)NCCCC[C@H](NC(=O)N[C@@H](CCC(=O)O)C(=O)O)C(=O)O)CC2)CCN(CC(=O)[O-])CC1.[177Lu+3] (stereo partly shown) [[177Lu]Lu-PSMA-617, lutetium (177Lu) vipivotide tetraxetan]
  Fatal serious AEs: Fatal serious AEs: 1.8% in [177Lu]Lu-PSMA-
  death during the study due to study indication: 4.4%
  most frequent serious adverse event: urinary tract infection: 1.8%
  on-treatment deaths due to Study indication: 0%
  subjects who received at least one dose and died during the study: 18 (8%) n (%)
ARDT prior to crossover
  AEs leading to discontinuation, Treatment-related: 1.8%
  Grade≥3 AEs, Treatment-related: 6.6%
  Serious AEs, Treatment-related: 2.2%
[1]
  Anaemia: 16.8%
  Arthralgia: 11.5%
  Asthenia: 23.9%
  Back pain: 7.1%
  COVID-19: 11.1%
  Constipation: 15.5%
  Decreased appetite: 12.8%
  Diarrhoea: 12.4%
  Dry mouth: 44.7%
  Fatigue: 18.1%
  Nausea: 25.2%
Safety set
  On-treatment deaths: Number of subjects who died: 4 (1.8%) n (%) and 4 (1.8) n (%)
  On-treatment deaths: Other: 4 (1.8) n (%)
  On-treatment deaths: Study indication: 0 n (%)
Safety set, All Grades
  AE preferred term: Anaemia: 38 (16.8) n (%)
  AE preferred term: Arthralgia: 26 (11.5) n (%)
  AE preferred term: Asthenia: 54 (23.9) n (%)
  AE preferred term: Back pain: 16 (7.1) n (%)
  AE preferred term: COVID-19: 25 (11.1) n (%)
  AE preferred term: Constipation: 35 (15.5) n (%)
  AE preferred term: Decreased appetite: 29 (12.8) n (%)
  AE preferred term: Diarrhoea: 28 (12.4) n (%)
  AE preferred term: Dry mouth: 101 (44.7) n (%)
  AE preferred term: Fatigue: 41 (18.1) n (%)
  AE preferred term: Nausea: 57 (25.2) n (%)
  Adverse events (subjects with at least one event): 202 (89.4) n (%)
  Adverse events leading to discontinuation: 9 (4.0) n (%)
  Adverse events leading to discontinuation, Treatment-related: 4 (1.8) n (%)
  Adverse events leading to dose adjustment: 5 (2.2) n (%)
  Adverse events leading to dose interruption: 16 (7.1) n (%)
  Adverse events requiring additional therapy: 121 (53.5) n (%)
  Adverse events, Treatment-related: 170 (75.2) n (%)
  Fatal serious adverse events: 4 (1.8) n (%)
  Fatal serious adverse events, Treatment-related: 0 n (%)
  Safety topic: Dry eye: 6 (2.7) n (%)
  Safety topic: Dry mouth: 101 (44.7) n (%)
  Safety topic: Fractures: 3 (1.3) n (%)
  Safety topic: Hepatotoxicity: 20 (8.8) n (%)
  Safety topic: Intracranial haemorrhage: 2 (0.9) n (%)
  Safety topic: Myelosuppression: 56 (24.8) n (%)
  Safety topic: QT prolongation: 2 (0.9) n (%)
  Safety topic: Radiotoxicity including inadvertent exposure: 0 n (%)
  Safety topic: Renal toxicity: 11 (4.9) n (%)
  Safety topic: Second primary malignancies: 3 (1.3) n (%)
  Serious AE preferred term: Anaemia: 2 (0.9) n (%)
  Serious AE preferred term: Haematuria: 0 n (%)
  Serious AE preferred term: Pain: 1 (0.4) n (%)
  Serious AE preferred term: Spinal cord compression: 2 (0.9) n (%)
  Serious AE preferred term: Urinary retention: 1 (0.4) n (%)
  Serious AE preferred term: Urinary tract infection: 4 (1.8) n (%)
  Serious adverse events (subjects with at least one event): 35 (15.5) n (%)
  Serious adverse events, Treatment-related: 5 (2.2) n (%)
Safety set, Grade >=3
  AE preferred term: Anaemia: 10 (4.4) n (%)
  AE preferred term: Arthralgia: 0 n (%)
  AE preferred term: Asthenia: 1 (0.4) n (%)
  AE preferred term: Back pain: 2 (0.9) n (%)
  AE preferred term: COVID-19: 1 (0.4) n (%)
  AE preferred term: Constipation: 1 (0.4) n (%)
  AE preferred term: Decreased appetite: 0 n (%)
  AE preferred term: Diarrhoea: 0 n (%)
  AE preferred term: Dry mouth: 1 (0.4) n (%)
  AE preferred term: Fatigue: 0 n (%)
  AE preferred term: Nausea: 0 n (%)
  Adverse events (subjects with at least one event): 53 (23.5) n (%)
  Adverse events leading to discontinuation: 6 (2.7) n (%)
  Adverse events leading to discontinuation, Treatment-related: 3 (1.3) n (%)
  Adverse events leading to dose adjustment: 1 (0.4) n (%)
  Adverse events leading to dose interruption: 9 (4.0) n (%)
  Adverse events requiring additional therapy: 34 (15.0) n (%)
  Adverse events, Treatment-related: 15 (6.6) n (%)
  Fatal serious adverse events: 4 (1.8) n (%)
  Fatal serious adverse events, Treatment-related: 0 n (%)
  Safety topic: Dry eye: 0 n (%)
  Safety topic: Dry mouth: 1 (0.4) n (%)
  Safety topic: Fractures: 1 (0.4) n (%)
  Safety topic: Hepatotoxicity: 8 (3.5) n (%)
  Safety topic: Intracranial haemorrhage: 1 (0.4) n (%)
  Safety topic: Myelosuppression: 19 (8.4) n (%)
  Safety topic: QT prolongation: 1 (0.4) n (%)
  Safety topic: Radiotoxicity including inadvertent exposure: 0 n (%)
  Safety topic: Renal toxicity: 2 (0.9) n (%)
  Safety topic: Second primary malignancies: 1 (0.4) n (%)
  Serious AE preferred term: Anaemia: 1 (0.4) n (%)
  Serious AE preferred term: Haematuria: 0 n (%)
  Serious AE preferred term: Pain: 1 (0.4) n (%)
  Serious AE preferred term: Spinal cord compression: 2 (0.9) n (%)
  Serious AE preferred term: Urinary retention: 1 (0.4) n (%)
  Serious AE preferred term: Urinary tract infection: 3 (1.3) n (%)
  Serious adverse events (subjects with at least one event): 30 (13.3) n (%)
  Serious adverse events, Treatment-related: 4 (1.8) n (%)
Safety set, preferred term
  On-treatment deaths: COVID-19 pneumonia: 1 (0.4) n (%)
  On-treatment deaths: Cardiac arrest: 1 (0.4) n (%)
